These results are taken from the supplement of paper PMC10307832.

What all share (assay): relative viability (nuclei count vs DMSO), 5 days (fraction); higher = more cells survive
Compound in the assay “RU-SKI 43 + Luminespib”: CC[C@@H](C)CNCC(=O)N1CCC2=C([C@@H]1COC3=CC=CC(=C3)C)C=CS2 [RU-SKI 43] + CCNC(=O)c1noc(-c2cc(C(C)C)c(O)cc2O)c1-c1ccc(CN2CCOCC2)cc1 [Luminespib] (partner 0.01 µM)
Summed up: (§1)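 Lung cancer cell lines in 1536-well plates got either a single drug or a fixed anchor-drug dose together with five library-drug doses (not always all listed) in √10 steps, by pin tool, on the day after seeding. Nuclei were counted after 5 days, and relative viability is the treated-to-vehicle ratio of nuclei counts. Values are medians of duplicate plates.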

Compound in the assay “Irinotecan + Alpelisib”: CCc1c2c(nc3ccc(OC(=O)N4CCC(N5CCCCC5)CC4)cc13)-c1cc3c(c(=O)n1C2)COC(=O)[C@]3(O)CC [Irinotecan] + Cc1nc(NC(=O)N2CCC[C@H]2C(N)=O)sc1-c1ccnc(C(C)(C)C(F)(F)F)c1 [Alpelisib] (partner 2 µM)
Summed up:
as §1

Compound in the assay “RU-SKI 43 + Dasatinib”: CC[C@@H](C)CNCC(=O)N1CCC2=C([C@@H]1COC3=CC=CC(=C3)C)C=CS2 [RU-SKI 43] + Cc1nc(Nc2ncc(C(=O)Nc3c(C)cccc3Cl)s2)cc(N2CCN(CCO)CC2)n1 [Dasatinib] (partner 0.075 µM)
Summed up:
as §1

Compound in the assay “Irinotecan + Navitoclax”: CCc1c2c(nc3ccc(OC(=O)N4CCC(N5CCCCC5)CC4)cc13)-c1cc3c(c(=O)n1C2)COC(=O)[C@]3(O)CC [Irinotecan] + CC1(C)CCC(c2ccc(Cl)cc2)=C(CN2CCN(c3ccc(C(=O)NS(=O)(=O)c4ccc(N[C@H](CCN5CCOCC5)CSc5ccccc5)c(S(=O)(=O)C(F)(F)F)c4)cc3)CC2)C1 [Navitoclax] (partner 0.5 µM)
The procedure, abridged:
as §1

In the case of UMC-11, the relative viability was 1.13 with RU-SKI 43 + Luminespib (first compound 0.1 µM); 1.29 with RU-SKI 43 + Luminespib (first compound 0.3162 µM); 1 with RU-SKI 43 + Luminespib (first compound 1 µM); 1.04 with RU-SKI 43 + Luminespib (first compound 3.162 µM); 1.09 with RU-SKI 43 + Luminespib (first compound 10 µM); 0.572 with Irinotecan + Alpelisib (first compound 0.6325 µM). Besides, the relative viability stood at 0.401 with Irinotecan + Alpelisib (first compound 2 µM); 0.214 with Irinotecan + Alpelisib (first compound 6.325 µM); 0.229 with Irinotecan + Alpelisib (first compound 20 µM); 0.526 with RU-SKI 43 + Dasatinib (first compound 0.1 µM); 0.685 in the assay with RU-SKI 43 + Dasatinib (first compound 0.3162 µM); 0.577 in the assay with RU-SKI 43 + Dasatinib (first compound 1 µM). Further, the relative viability with RU-SKI 43 + Dasatinib (first compound 3.162 µM) came out at 0.516; in the assay with RU-SKI 43 + Dasatinib (first compound 10 µM), 0.471; with Irinotecan + Navitoclax (first compound 0.6325 µM), 0.235; with Irinotecan + Navitoclax (first compound 2 µM), 0.208; in the assay with Irinotecan + Navitoclax (first compound 6.325 µM), 0.163; in the assay with Irinotecan + Navitoclax (first compound 20 µM), 0.147.
